# From publication PMC6382835, “A critical evaluation of TRPA1-mediated locomotor behavior in zebrafish as a screening tool for novel anti-nociceptive drug discovery” (Scientific Reports, 2019)
# Where two headings read alike, the source gives them in different places.
# Molecular target: T1, zebrafish TRPA1a (zTRPA1a) (Danio rerio, UniProt Q5UM15)
# T1 sequence (Q5UM15 1-1115): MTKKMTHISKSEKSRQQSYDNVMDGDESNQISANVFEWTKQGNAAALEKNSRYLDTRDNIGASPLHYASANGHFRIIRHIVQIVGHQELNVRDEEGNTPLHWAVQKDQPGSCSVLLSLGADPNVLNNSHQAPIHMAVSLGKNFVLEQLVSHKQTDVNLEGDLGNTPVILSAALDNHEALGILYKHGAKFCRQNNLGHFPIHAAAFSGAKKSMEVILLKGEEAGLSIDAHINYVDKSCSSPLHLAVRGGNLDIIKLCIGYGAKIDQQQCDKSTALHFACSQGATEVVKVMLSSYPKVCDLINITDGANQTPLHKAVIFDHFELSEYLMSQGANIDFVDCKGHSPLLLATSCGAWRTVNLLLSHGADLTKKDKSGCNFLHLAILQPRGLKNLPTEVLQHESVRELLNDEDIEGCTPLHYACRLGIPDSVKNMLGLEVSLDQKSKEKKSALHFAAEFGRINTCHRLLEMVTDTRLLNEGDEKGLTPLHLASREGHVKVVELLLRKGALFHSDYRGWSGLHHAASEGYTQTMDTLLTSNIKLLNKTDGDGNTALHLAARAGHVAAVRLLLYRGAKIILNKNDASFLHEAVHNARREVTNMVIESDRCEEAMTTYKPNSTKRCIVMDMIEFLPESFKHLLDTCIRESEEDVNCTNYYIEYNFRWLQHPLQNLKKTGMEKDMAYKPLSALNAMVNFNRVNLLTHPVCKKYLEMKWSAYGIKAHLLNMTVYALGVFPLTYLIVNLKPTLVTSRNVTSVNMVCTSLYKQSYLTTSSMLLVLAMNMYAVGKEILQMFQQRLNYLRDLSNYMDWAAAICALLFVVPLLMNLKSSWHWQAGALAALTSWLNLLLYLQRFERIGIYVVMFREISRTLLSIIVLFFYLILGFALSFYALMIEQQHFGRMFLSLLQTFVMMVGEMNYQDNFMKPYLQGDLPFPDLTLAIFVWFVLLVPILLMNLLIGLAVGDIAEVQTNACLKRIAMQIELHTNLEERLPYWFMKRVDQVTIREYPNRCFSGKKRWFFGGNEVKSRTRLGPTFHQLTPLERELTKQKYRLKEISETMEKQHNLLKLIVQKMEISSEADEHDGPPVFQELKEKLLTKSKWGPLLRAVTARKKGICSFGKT
# Test: FLIPR calcium signaling assay in zTRPA1a-transfected HEK293 cells
# Assay type: cell-based
# Method: The cells were maintained in a 37 °C incubator with consistent 5% CO2. […] Experiments were carried out with the approval of the Institutional Biohazard Committee (#13-013-16).
# Twenty-five µl calcium sensitive Fluorescent Imaging Plate Reader (FLIPR) Calcium 6 assay dye (#R8190, Molecular Devices, CA, USA) was added to each well of a 384-well plate containing HEK293 cells transiently expressing mTRPA1, zTRPA1a, and zTRPA1b, respectively. The cells were incubated for an hour prior to the recording of intracellular calcium levels in a FlexStation3 Multi-Mode Microplate Reader (#R8190, Molecular Devices) as previously described. […] During the assay, the cells were challenged by a 5x ASP7663 solution or 1% DMSO solution at the 20 seconds time point, and both solutions were diluted in calcium buffer. Relative fluorescence units (RFU) were measured for 120 seconds period by the Flexstation. […] For each specific antagonist concentration we plotted Log(dose ratio-1) against the antagonist concentration in a Schild plot. The dose ratio (A’/A) equals the EC50 of the agonist (ASP7665) in the presence of a concentration of the antagonist (A’) divided by the EC50 of the agonist in the absence of antagonist (A). The x-intercept of the Schild plot was used to identify the antagonist-receptor affinity (pA2).
# All data are presented as means ± standard error of the mean (SEM). For our in vitro statistical analysis, AUC of calcium influx (RFU) was measured to plot dose-response curves, which were further analyzed by nonlinear regression analysis. Mean RFU of the first 10 seconds was used as a baseline of the AUC. EC50 values of the dose-response curves were further used to plot Schild curves, and the curves were analyzed with linear regression analysis. For the mice von Frey test, mechanical thresholds were analyzed with two-way ANOVA followed by a Bonferonni test for multiple comparison analysis. For the zebrafish behavior test, the data from the first five seconds following drug administration were excluded, as zebrafish displacement during that period was highly influenced by liquid dispensing. AUC of all curves were measured and analyzed by one-way ANOVA. The post-hoc analysis was conducted with the Tukey’s or Dunnett’s multiple comparisons unless it stated otherwise. […] For our time-course average displacement graph, we used 2nd degree polynomial smoothing for a better representation; however, we used data before smoothing for all statistical analysis and quantification. All in vitro and in vivo data were evaluated using GraphPad Prism 7 (GraphPad Software, La Jolla, CA) unless it stated otherwise.
# [1] = agonist calcium influx, zTRPA1a-transfected HEK293, read-out: EC50 (potency in µM)
compound,measurement,setting,value
"C=CCN=C=S [AITC, allyl isothiocyanate]",EC50,"agonist calcium influx, AUC of RFU, zTRPA1a-transfected HEK293, read-out: pEC50 (AITC given as EC50) (converted)",25.1 µM
same,EC50,[1],26.6 µM
CC(C)c1ccc(NC(=O)Cn2cnc3c2c(=O)n(C)c(=O)n3C)cc1 [HC-030031],calcium influx by antagonist alone,"316 µM, zTRPA1a-transfected cells",could produce an influx of intracellular calcium
same,pEC50 (weak agonist activity),"HC030031 alone, zTRPA1a-transfected HEK293, Supplemental Fig. 6",2.85 ± 0.19
same,pA2 expressed in µM,"Schild plot against ASP7663-mediated calcium influx, zTRPA1a",26.8 µM
same,pA2,"Schild plot against ASP7663-mediated calcium influx, zTRPA1a, only two antagonist doses",4.6 ± 0.2
same,Schild slope,"zTRPA1a, n = 3",0.84 ± 0.22
CC(C)CN1C(=O)/C(=C/C(=O)O)c2cccc(F)c21 [ASP7663],pEC50 (AITC given as EC50),"agonist calcium influx, AUC of RFU, zTRPA1a-transfected HEK293",3.9 ± 0.18
same,EC50,[1],118 µM
